Literature values, collected in US20120148541A1, “COMPOSITIONS AND METHODS TO GENERATE PILOSEBACEOUS UNITS” (priority 2010, published 2012).

How the values were obtained:
[1] = in published reports
[2] = DMSO

## c1cc(-c2cnn3cc(-c4ccc(OCCN5CCCCC5)cc4)cnc23)ccn1 [Dorsomorphin, dorsomorphin]
[1]
  toxicity: low toxicity
[2]
  solubility: soluble in DMSO
